Structures are written as SMILES. Counter-ions that a name gives are not always drawn.

One experiment deals with T1, MASP-2 (CCP1-CCP2-SP) (Homo sapiens, UniProt O00187).
T1 construct: 15 μL of Enzyme MASP-2 (CCP1-CCP2-SP) in Assay Buffer
Briefly: Enzymatic assay for MASP-2 inhibitory activity (fluorogenic substrate). In kind it is biochemical. The method, then: The MASP-2 assay utilizes a fluorogenic substrate, based on the cleavage site for its natural substrate C2. The assay was run at room temperature in an assay buffer containing 20 mM HEPES, pH 7.4, 140 mM NaCl and 0.1% Tween 20. Assay parameters were adjusted such that the assay was linear with respect to time, enzyme, and substrate concentrations. Under the optimized assays conditions, IC50 values were equivalent to Ki values, except in the few cases of “tight binding” inhibitors. Cases of “tight binding” or possible “slow binding” inhibitors were handled by the methods described in Copeland R. A. (2013) Evaluation of Enzyme Inhibitors in Drug Discovery. 2nd Ed., John Wiley and Sons, Inc., Chapters 5-7.
The MASP-2 assay protocol was carried out as follows. Test compounds were serially diluted in DMSO and then 100 nL of each dilution was transferred to the assay plate(s). 10 μL of Assay Buffer was added, followed by 15 μL of Enzyme MASP-2 (CCP1-CCP2-SP) in Assay Buffer. 15 μL of Substrate in Assay Buffer was then added and the mixture was mixed to start the reaction. After 20 min at room temperature, 15 μL of a stop solution (0.1 M acetic acid) was added, the sample was mixed, and the plates were read on a SpectraMax i3x Microplate Reader with the data exported as an Excel file. Each assay plate included a “no inhibitor” (DMSO only) control, a “no enzyme” control, and a reference inhibitor control. % Activity values=100*(average test comp. fluorescence−average “no enzyme” fluorescence)/(average “DMSO only” fluorescence−average “no enzyme” fluorescence). IC50 and Ki replicate values were very reproducible, with values well within ±2-fold.

A further experiment deals with T2, human α-thrombin (Homo sapiens, UniProt P00734).
T2 construct: enzyme (human α-thrombin (BioPharm® Lab.)) in assay buffer; purchased BioPharm® Lab
Kind of experiment: Enzymatic assay for thrombin (fluorogenic peptide substrate Boc-VPR-AMC). In kind it is biochemical. The method, then: The thrombin assay utilizes a fluorogenic peptide substrate (Boc-VPR-AMC (R&D Systems) and was run at room temperature in an assay buffer containing 20 mM Hepes, pH 7.4, 140 mM NaCl and 0.1% Tween 20. Assay parameters were adjusted such that the assay was linear with respect to time, enzyme, and substrate concentrations. Under these optimized assays conditions, IC50 values were equivalent to Ki values, except in a few cases of “tight binding” inhibitors. Cases of “tight binding” or possible “slow binding” inhibitors were handled by the methods described in Copeland R. A. (2013) Evaluation of Enzyme Inhibitors in Drug Discovery. 2nd Ed. John Wiley and Sons, Inc., Chapters 5-7.
The thrombin assay protocol was carried out as follows. Test compounds were serially diluted in DMSO and then 100 nL of each dilution was transferred to the assay plate(s). 10 μL of Assay Buffer was added, followed by 15 μL of enzyme (human α-thrombin (BioPharm® Lab.)) in assay buffer. 15 μL of substrate in assay buffer was then added and the sample mixed to start the reaction. After 20 min at room temperature, 15 μL of a stop solution (0.1 M acetic acid) was added, the sample was mixed, and the plates were read on a SpectraMax® i3x Microplate Reader with the data exported as Excel files. Each assay plate included a “no inhibitor” (DMSO only) control, a “no enzyme” control, and a reference inhibitor control. % Activity values=100*(ave. test comp. fluorescence−ave. “no enz” fluorescence)/(ave. “DMSO only” fluorescence−ave. “no enz” fluorescence). IC50 and Ki values were very reproducible, with values falling well within ±2-fold.

T1 sequence (O00187 445-686 limits assumed): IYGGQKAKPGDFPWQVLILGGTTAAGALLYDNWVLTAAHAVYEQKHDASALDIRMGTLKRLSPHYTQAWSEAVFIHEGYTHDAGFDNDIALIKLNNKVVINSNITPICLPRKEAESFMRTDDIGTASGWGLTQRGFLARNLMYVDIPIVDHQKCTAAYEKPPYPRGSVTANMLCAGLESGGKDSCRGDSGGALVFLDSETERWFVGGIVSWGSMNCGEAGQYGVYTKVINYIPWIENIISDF
T1 sequence (O00187 287-444 partner limits assumed): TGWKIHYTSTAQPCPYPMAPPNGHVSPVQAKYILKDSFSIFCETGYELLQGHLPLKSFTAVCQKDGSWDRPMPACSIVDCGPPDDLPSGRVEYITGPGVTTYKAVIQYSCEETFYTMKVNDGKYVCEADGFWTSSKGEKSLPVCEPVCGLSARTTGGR

For the molecule `Cc1cc(C)cc(CNc2ncc3n(c2=O)[C@H](C(=O)NCc2ccccn2)CC3)c1` [Compound 40, (S)-3-((3,5-dimethylbenzyl)amino)-4-oxo-N-(pyridin-2-ylmethyl)-4,6,7,8-tetrahydropyrrolo[1,2-a]pyrazine-6-carboxamide trifluoroacetate], the Ki is 10000 to 25000 nM on MASP-2 (CCP1-CCP2-SP) and over 25000 nM on human α-thrombin.
In the case of `Cc1cc(C)cc(CNc2ncc3n(c2=O)[C@H](C(=O)NCc2cc4c(s2)CN(C)C4)CC3)c1` [Compound 42, (S)-3-((3,5-dimethylbenzyl)amino)-N-((5-methyl-5,6-dihydro-4H-thieno[2,3-c]pyrrol-2-yl)methyl)-4-oxo-4,6,7,8-tetrahydropyrrolo[1,2-a]pyrazine-6-carboxamide trifluoroacetate], the figures for the Ki on MASP-2 (CCP1-CCP2-SP) and on human α-thrombin were under 500 nM and 10000 to 25000 nM, respectively.
With `Cc1cc(C)cc(CNc2ncc3n(c2=O)[C@H](C(=O)NC(C)c2cc4cnccc4[nH]2)CC3)c1` (stereo partly drawn) [Compound 43, (6S)-N-(1-(1H-pyrrolo[3,2-c]pyridin-2-yl)ethyl)-3-((3,5-dimethylbenzyl)amino)-4-oxo-4,6,7,8-tetrahydropyrrolo[1,2-a]pyrazine-6-carboxamide trifluoroacetate], the Ki was under 500 nM on MASP-2 (CCP1-CCP2-SP) and over 25000 nM at human α-thrombin.
On to `Cc1ccc(CNc2ncc3n(c2=O)[C@H](C(=O)NCc2cc4cnccc4[nH]2)CC3)cc1C` [Compound 44, (S)-N-((1H-pyrrolo[3,2-c]pyridin-2-yl)methyl)-3-((3,4-dimethylbenzyl)amino)-4-oxo-4,6,7,8-tetrahydropyrrolo[1,2-a]pyrazine-6-carboxamide], for which the Ki at MASP-2 (CCP1-CCP2-SP) is under 500 nM; at human α-thrombin it was 500 to 2500 nM.
The corresponding values for `CCc1cccc(CNc2ncc3n(c2=O)[C@H](C(=O)NCc2cc4cnccc4[nH]2)CC3)c1` [Compound 45, (S)-N-((1H-pyrrolo[3,2-c]pyridin-2-yl)methyl)-3-((3-ethylbenzyl)amino)-4-oxo-4,6,7,8-tetrahydropyrrolo[1,2-a]pyrazine-6-carboxamide] are under 500 nM and under 500 nM.
Consider `CCc1cccc(CNc2ncc3n(c2=O)[C@H](C(=O)NCc2ccc(N)nc2C)CC3)c1` [Compound 46, (S)-N-((6-amino-2-methylpyridin-3-yl)methyl)-3-((3-ethylbenzyl)amino)-4-oxo-4,6,7,8-tetrahydropyrrolo[1,2-a]pyrazine-6-carboxamide], for which the Ki on MASP-2 (CCP1-CCP2-SP) and on human α-thrombin was under 500 nM each time.
As for `Cc1nc(N)ccc1CNC(=O)[C@@H]1CCc2cnc(NCc3cccc(CO)c3)c(=O)n21` [Compound 47, (S)-N-((6-amino-2-methylpyridin-3-yl)methyl)-3-((3-(hydroxymethyl)benzyl)amino)-4-oxo-4,6,7,8-tetrahydropyrrolo[1,2-a]pyrazine-6-carboxamide], the Ki on MASP-2 (CCP1-CCP2-SP) and at human α-thrombin was under 500 nM in each case.
Turning to `COc1cc(C)cc(CNc2ncc3n(c2=O)[C@H](C(=O)NCc2ccc(N)nc2C)CC3)c1` [Compound 49, (S)-N-((6-amino-2-methylpyridin-3-yl)methyl)-3-((3-methoxy-5-methylbenzyl)amino)-4-oxo-4,6,7,8-tetrahydropyrrolo[1,2-a]pyrazine-6-carboxamide], the Ki at MASP-2 (CCP1-CCP2-SP) and on human α-thrombin was under 500 nM each time.
Regarding `Cc1cc(C)cc(CNc2ncc3n(c2=O)[C@H](C(=O)NCc2cc4cnc(C)cc4[nH]2)CC3)c1` [Compound 50, (S)-3-((3,5-dimethylbenzyl)amino)-N-((6-methyl-1H-pyrrolo[3,2-c]pyridin-2-yl)methyl)-4-oxo-4,6,7,8-tetrahydropyrrolo[1,2-a]pyrazine-6-carboxamide], the Ki is under 500 nM on MASP-2 (CCP1-CCP2-SP) and 10000 to 25000 nM at human α-thrombin.
The corresponding values for `COc1cc(C)cc(CNc2ncc3n(c2=O)[C@H](C(=O)NCc2cc4cnc(C)cc4[nH]2)CC3)c1` [Compound 51, (S)-3-((3-methoxy-5-methylbenzyl)amino)-N-((6-methyl-1H-pyrrolo[3,2-c]pyridin-2-yl)methyl)-4-oxo-4,6,7,8-tetrahydropyrrolo[1,2-a]pyrazine-6-carboxamide] are under 500 nM and 2500 to 10000 nM.
`Cc1ccccc1CNc1ncc2n(c1=O)[C@H](C(=O)NCc1ccc(N)nc1C)CC2` [Compound 52, (S)-N-((6-amino-2-methylpyridin-3-yl)methyl)-3-((2-methylbenzyl)amino)-4-oxo-4,6,7,8-tetrahydropyrrolo[1,2-a]pyrazine-6-carboxamide]: the Ki on MASP-2 (CCP1-CCP2-SP) and at human α-thrombin was under 500 nM throughout.
`Cc1ccccc1CNc1ncc2n(c1=O)[C@H](C(=O)NCc1cc3cnccc3[nH]1)CC2` [Compound 53, (S)-N-((1H-pyrrolo[3,2-c]pyridin-2-yl)methyl)-3-((2-methylbenzyl)amino)-4-oxo-4,6,7,8-tetrahydropyrrolo[1,2-a]pyrazine-6-carboxamide]: the values for the Ki on MASP-2 (CCP1-CCP2-SP) and on human α-thrombin were under 500 nM and 500 to 2500 nM, respectively.
As for `O=C(NCc1cc2cnccc2[nH]1)[C@@H]1CCc2cnc(NCc3cc(F)cc(F)c3)c(=O)n21` [Compound 54, (S)-N-((1H-pyrrolo[3,2-c]pyridin-2-yl)methyl)-3-((3,5-difluorobenzyl)amino)-4-oxo-4,6,7,8-tetrahydropyrrolo[1,2-a]pyrazine-6-carboxamide], the Ki at MASP-2 (CCP1-CCP2-SP) was under 500 nM; on human α-thrombin it was 500 to 2500 nM.
`Cc1ccc(C)c(CNc2ncc3n(c2=O)[C@H](C(=O)NCc2ccc(N)nc2C)CC3)c1` [Compound 55, (S)-N-((6-amino-2-methylpyridin-3-yl)methyl)-3-((2,5-dimethylbenzyl)amino)-4-oxo-4,6,7,8-tetrahydropyrrolo[1,2-a]pyrazine-6-carboxamide]: the Ki at MASP-2 (CCP1-CCP2-SP) and at human α-thrombin was under 500 nM in each case.
With `Cc1ccc(C)c(CNc2ncc3n(c2=O)[C@H](C(=O)NCc2cc4cnccc4[nH]2)CC3)c1` [Compound 56, (S)-N-((1H-pyrrolo[3,2-c]pyridin-2-yl)methyl)-3-((2,5-dimethylbenzyl)amino)-4-oxo-4,6,7,8-tetrahydropyrrolo[1,2-a]pyrazine-6-carboxamide], the values for the Ki on MASP-2 (CCP1-CCP2-SP) and at human α-thrombin were under 500 nM and 500 to 2500 nM, respectively.
Turning to `Cc1ccc(C)c(CNc2ncc3n(c2=O)[C@H](C(=O)NCc2cc4cnc(C)cc4[nH]2)CC3)c1` [Compound 57, (S)-3-((2,5-dimethylbenzyl)amino)-N-((6-methyl-1H-pyrrolo[3,2-c]pyridin-2-yl)methyl)-4-oxo-4,6,7,8-tetrahydropyrrolo[1,2-a]pyrazine-6-carboxamide], the Ki at MASP-2 (CCP1-CCP2-SP) is under 500 nM; at human α-thrombin it was 10000 to 25000 nM.
Regarding `Cc1cc2[nH]c(CNC(=O)[C@@H]3CCc4cnc(NCc5cccc(C)c5C)c(=O)n43)cc2cn1` [Compound 58, (S)-3-((2,3-dimethylbenzyl)amino)-N-((6-methyl-1H-pyrrolo[3,2-c]pyridin-2-yl)methyl)-4-oxo-4,6,7,8-tetrahydropyrrolo[1,2-a]pyrazine-6-carboxamide], the Ki is under 500 nM at MASP-2 (CCP1-CCP2-SP) and over 25000 nM at human α-thrombin.
As for `Cc1cccc(CNc2ncc3n(c2=O)[C@H](C(=O)NCc2cc4cnccc4[nH]2)CC3)c1C` [Compound 59, (S)-N-((1H-pyrrolo[3,2-c]pyridin-2-yl)methyl)-3-((2,3-dimethylbenzyl)amino)-4-oxo-4,6,7,8-tetrahydropyrrolo[1,2-a]pyrazine-6-carboxamide], the Ki on MASP-2 (CCP1-CCP2-SP) is under 500 nM; on human α-thrombin, 500 to 2500 nM.
For the molecule `Cc1cccc(CNc2ncc3n(c2=O)[C@H](C(=O)NCc2ccc(N)nc2C)CC3)c1C` [Compound 60, (S)-N-((6-amino-2-methylpyridin-3-yl)methyl)-3-((2,3-dimethylbenzyl)amino)-4-oxo-4,6,7,8-tetrahydropyrrolo[1,2-a]pyrazine-6-carboxamide], the Ki at MASP-2 (CCP1-CCP2-SP) and at human α-thrombin was under 500 nM in each case.

Values taken from patent US20250122225A1, “MASP-2 INHIBITORS AND METHODS OF USE” (Omeros Corporation, priority 2023, published 2025).
